Assay results: patent publication US20190015423A1, “REGULATION OF GENE EXPRESSION BY MODULATING PRIMARY CILIA LENGTH” (THE TRUSTEES OF COLUMBIA UNIVERSITY IN THE CITY OF NEW YORK, priority 2016, published 2019)
Entries after “also recorded” stand apart in the source; their conditions may differ. Where a name gives a salt, the structure may show the parent alone.

Assays:
C57Bl/6 mice = assay: Load-induced bone formation: compressive ulnar loading and dynamic histomorphometry; format: in vivo; conditions: ulnar load final 3 days
Text: All data are shown in reference to the non-loaded contralateral limb as control. […] On day 4-6 the mice were subjected to daily axial compressive ulnar loading. Mice were placed under isoflurane anesthesia and forelimbs were placed between two loading cups controlled by an electromagnetic loading system with feedback control (Bose, ELF 3220). An initial 0.1 N preload was applied, followed by 3 N of cyclic compression applied with a 2 Hz sine wave for 120 cycles, generating a strain gage verified average peak deformation of 1895 μstrain. On day 8, mice were subcutaneously injected with calcein (10 mg/kg) and alizarin red (70 mg/kg) on day 12. Mice were euthanized on day 18 and prepared for dynamic histomorphometric analysis.
Compressive ulnar loading was applied on days 5-7 to mechanically stimulate bone (3N at 2 Hz for 120 cycles) [9].
On the final three days of drug or control injection, animals were also subjected to compressive ulnar load at a peak load of 3 N using a 2 Hz sine wave for 120 cycles, as previously described (Temiyasathit, S. et al. PLoS One 7, (2012); Lee, K. L. et al. FASEB J. 28, 1157-1165 (2014)). Contralateral limbs served as a non-loaded control. 2 days following load, mice were treated with 10 mg/kg calcein (Sigma), and 4 days later 70 mg/kg alizarin (Sigma), with mice being sacrificed 6 days later.
Dynamic histomorphometry was performed as previously described, measuring the amount and separation of calcein and alizarin labels to quantify mineralizing surface (rMS/BS), mineral apposition rate (rMAR), and bone formation rate (rBFR/BS) relative to non-loaded controls (Temiyasathit, S. et al. PLoS One 7, (2012); Lee, K. L. et al. FASEB J. 28, 1157-1165 (2014)). Left and right ulnae were dissected and preserved in ethanol. Samples were then infiltrated with methyl methacrylate, and embedded in methyl methacrylate and benzoyl peroxide. Transverse sections of the ulnar midshaft were imaged on a laser scanning confocal microscope (Olympus Fluoview FV1000). Measurements of outer bone perimeter (OP), single label perimeter (SL), double label perimeter (DL), and double label area (DA) were made in ImageJ. The mineralizing surface relative to outer bone surface (MS/BS), mineral apposition rate (MAR), and bone formation rate (BFS/BS) were calculated as:
Relative measurements—rMS/BS, rMAR, rBFR/BS—were determined by subtracting non-loaded from loaded ulnae to display differences due to mechanical load.

[1] = Adverse effects of drug treatment: body, kidney and liver weight, H&E histology, bone ultrastructure, injection site; format: in vivo, mice; conditions: fenoldopam 20 mg/kg; for visible bone ultrastructure: loaded ulnae
Text: Mice were housed in the Columbia University Barrier Facility and fed ad libidum. All procedures performed were in accordance with Columbia University Institutional Animal Care and Use Committee guidelines.
Kidneys and liver were dissected from animals, weighed, fixed in 10% formalin, and stored in 70% ethanol before being paraffin embedded. 5 μm thick longitudinal sections were made, and samples were stained with hematoxylin and eosin to visualize tissue structure. Images were captured at 4× magnification. Kidney function was broadly examined by urine creatinine concentration. […] Hydrophobic sand (Lab Sand) was used for urine sample collection, and analysis was performed using a total urine creatinine kit (Cayman Chemical).

[2] = tested on: Ovariectomized (OVX) mice; assay: Load-induced bone formation in ovariectomized (OVX) osteoporotic mice; format: in vivo; conditions: fenoldopam 20 mg/kg 7 days, compressive ulnar load
Experimental: On the final three days of drug or control injection, animals were also subjected to compressive ulnar load at a peak load of 3 N using a 2 Hz sine wave for 120 cycles, as previously described ([…]. et al. PLoS One 7, (2012); Lee, K. L. et al. FASEB J. 28, 1157-1165 (2014)). Contralateral limbs served as a non-loaded control. 2 days following load, mice were treated with 10 mg/kg calcein (Sigma), and 4 days later 70 mg/kg alizarin (Sigma), with mice being sacrificed 6 days later. Dynamic histomorphometry was performed as previously described, measuring the amount and separation of calcein and alizarin labels to quantify mineralizing surface (rMS/BS), mineral apposition rate (rMAR), and bone formation rate (rBFR/BS) relative to non-loaded controls ([…]. et al. PLoS One 7, (2012); Lee, K. L. et al. FASEB J. 28, 1157-1165 (2014)). Left and right ulnae were dissected and preserved in ethanol. Samples were then infiltrated with methyl methacrylate, and embedded in methyl methacrylate and benzoyl peroxide. Transverse sections of the ulnar midshaft were imaged on a laser scanning confocal microscope (Olympus Fluoview FV1000). Measurements of outer bone perimeter (OP), single label perimeter (SL), double label perimeter (DL), and double label area (DA) were made in ImageJ. The mineralizing surface relative to outer bone surface (MS/BS), mineral apposition rate (MAR), and bone formation rate (BFS/BS) were calculated as: Relative measurements-rMS/BS, rMAR, rBFR/BS-were determined by subtracting non-loaded from loaded ulnae to display differences due to mechanical load. Ovariectomized (OVX) and Sham animals were purchased directly from Jackson Laboratories, with surgery performed at 12 weeks old. […] Dynamic histomorphometry was only performed on OVX animals, while Sham animals were used to confirm osteoporotic phenotype based on μCT analysis.

[3] = fenoldopam 20 mg/kg s.c. 7 consecutive days, relative to non-loaded limb, vs vehicle
[4] = fenoldopam 20 mg/kg s.c. 7 consecutive days, relative to non-loaded limb, vs vehicle, listed as Fenoldopam
[5] = fenoldopam 50 mg/kg (Fen-High) s.c. 7 consecutive days

Compound: Oc1ccc(C2CNCCc3c2cc(O)c(O)c3Cl)cc1 (stereo not drawn) [fenoldopam, Fenoldopam mesylate]
- bone formation rate (rBFR/BS) (C57Bl/6 mice; [3]): significantly increased; also recorded: significant increases; also recorded: significantly enhanced
- mineral apposition rate (rMAR) (C57Bl/6 mice; [3]): significantly increased; also recorded: significant increases
- mineralizing surface (rMS/BS) (C57Bl/6 mice; [3]): remained unchanged; also recorded: neither fenoldopam concentration elicited a significant increase
- bone formation rate (rBFR/BS) (C57Bl/6 mice; [4]): enhances
- mineralizing surface (rMS/BS) (C57Bl/6 mice; [4]): no effect
- bone formation rate (rBFR/BS) (C57Bl/6 mice; [5]): no statistically significant difference; also recorded: no effect; also recorded: elicited no bone formation response
- mineral apposition rate (rMAR) (C57Bl/6 mice; [5]): no statistically significant difference; also recorded: no effect
- mineralizing surface (rMS/BS) (C57Bl/6 mice; [5]): no statistically significant difference; also recorded: no effect
- visible bone ultrastructure ([1]; 7 days, vs vehicle control): no difference
- visible bone ultrastructure ([1]; 7 days, vs vehicle control, listed as Fenoldopam): no qualitative change
- kidney morphology assessed by H&E stain ([1]; 7 days, vs vehicle control): remained unchanged
- kidney weight ([1]; 7 days, vs vehicle control): remained unchanged
- mouse weight ([1]; 7 days, vs vehicle control): remained unchanged
- kidney histology ([1]; preliminary study): no abnormalities or cysts
- kidney weight to body mass measurements ([1]; preliminary study): no different than vehicle controls
- bone formation rate (rBFR/BS) compared to vehicle control [2]: increased
- mineral apposition rate (rMAR) compared to vehicle control [2]: increased
- mineralizing surface (rMS/BS) compared to vehicle control [2]: increased
